Source: patent US7799924B2, “Substituted homopiperidine, piperidine or pyrrolidine derivatives” (High Point Pharmaceuticals, LLC, priority 2002, dated 2010)

## CN1CCC(c2noc(-c3ccc(-c4ccccc4)cc3)n2)CC1.CS(=O)(=O)O
  melting point: 222 to 224 °C
